Source: PubChem BioAssay (NCI)
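48-hour exposure; five concentrations; linearly interpolated endpoints. GI50 is the concentration that inhibits growth by half. TGI marks complete inhibition of growth.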 Active and inactive are the calls of the source. Rule as the data show it: active = GI50 below about 0.43 µM; inactive = the rest.

How the values were obtained:
Experiment in all cases: growth of human tumour cells (NCI), 48 h
[1] = tested on: 786-0 renal
[2] = tested on: A498 renal
[3] = tested on: A549 NSCLC
[4] = tested on: ACHN renal
[5] = tested on: BT-549 breast
[6] = tested on: CAKI-1 renal
[7] = tested on: CCRF-CEM leukemia
[8] = tested on: COLO 205 colon
[9] = tested on: DU-145 prostate
[10] = tested on: EKVX NSCLC
[11] = tested on: HCC-2998 colon
[12] = tested on: HCT-15 colon
[13] = tested on: HOP-62 NSCLC
[14] = tested on: HOP-92 NSCLC
[15] = tested on: HT29 colon
[16] = tested on: K-562 leukemia
[17] = tested on: M14 melanoma
[18] = tested on: MALME-3M melanoma
[19] = tested on: MCF7 breast
[20] = tested on: MDA-MB-231 breast
[21] = tested on: MOLT-4 leukemia
[22] = tested on: NCI-H226 lung
[23] = tested on: NCI-H23 lung
[24] = tested on: NCI-H460 lung
[25] = tested on: NCI-H522 lung
[26] = tested on: NCI/ADR-RES ovarian
[27] = tested on: OVCAR-3 ovarian
[28] = tested on: OVCAR-4 ovarian
[29] = tested on: OVCAR-5 ovarian
[30] = tested on: OVCAR-8 ovarian
[31] = tested on: PC-3 prostate
[32] = tested on: RPMI-8226 leukemia
[33] = tested on: RXF 393 renal
[34] = tested on: SF-268 CNS
[35] = tested on: SF-295 CNS
[36] = tested on: SF-539 CNS
[37] = tested on: SK-MEL-2 melanoma
[38] = tested on: SK-OV-3 ovarian
[39] = tested on: SN12C renal
[40] = tested on: SNB-19 CNS
[41] = tested on: SNB-75 CNS
[42] = tested on: T-47D breast
[43] = tested on: TK-10 renal
[44] = tested on: U251 CNS
[45] = tested on: UACC-257 melanoma
[46] = tested on: UO-31 renal
[47] = tested on: HS 578T breast
[48] = tested on: UACC-62 melanoma
[49] = tested on: HCT-116 colon
[50] = tested on: HL-60(TB) leukemia
[51] = tested on: IGROV1 ovarian
[52] = tested on: KM12 colon
[53] = tested on: LOX IMVI melanoma
[54] = tested on: MDA-MB-435
[55] = tested on: SK-MEL-28 melanoma
[56] = tested on: SK-MEL-5 melanoma
[57] = tested on: SR leukemia
[58] = tested on: SW-620 colon

## CCOc1cc2c(OCc3ccccc3)cc3c4cc(OC)c(OC)cc4c[n+](C)c3c2cc1OC
[1]
  TGI: 26.6 µM
[2]
  TGI: > 76.3 µM
[3]
  TGI: 24.2 µM
[4]
  TGI: > 75.2 µM
[5]
  TGI: 4.72 µM
[6]
  TGI: > 69.4 µM
[7]
  TGI: 23 µM
[8]
  TGI: 0.481 µM
[9]
  TGI: 23.2 µM
[10]
  TGI: > 100 µM
[11]
  TGI: 21.6 µM
[12]
  TGI: > 100 µM
[13]
  TGI: 19.6 µM
[14]
  TGI: 2.08 µM
[15]
  TGI: 11.1 µM
[16]
  TGI: > 42.6 µM
[17]
  TGI: 9.73 µM
[18]
  TGI: 2.18 µM
[19]
  TGI: 4.44 µM
[20]
  TGI: 6.65 µM
[21]
  TGI: > 20.3 µM
[22]
  TGI: 9.71 µM
[23]
  TGI: 9.1 µM
[24]
  TGI: > 58.9 µM
[25]
  TGI: 1.43 µM
[26]
  TGI: > 100 µM
[27]
  TGI: 6.17 µM
[28]
  TGI: > 100 µM
[29]
  TGI: 44 µM
[30]
  TGI: 5.6 µM
[31]
  TGI: 4.84 µM
[32]
  TGI: > 29.6 µM
[33]
  TGI: 9.18 µM
[34]
  TGI: 4.91 µM
[35]
  TGI: > 86.3 µM
[36]
  TGI: 5.43 µM
[37]
  TGI: 2.59 µM
[38]
  TGI: 19.4 µM
[39]
  TGI: > 100 µM
[40]
  TGI: 2.44 µM
[41]
  TGI: > 100 µM
[42]
  TGI: > 100 µM
[43]
  TGI: > 62.6 µM
[44]
  TGI: 2.66 µM
[45]
  TGI: 4.95 µM
[46]
  TGI: > 80.4 µM

## O=[N+]([O-])C(=C(Cl)Cl)/C(Cl)=C(\Cl)Br
[3]
  outcome: inactive
[9]
  outcome: inactive
[47]
  outcome: inactive
[29]
  outcome: inactive
[35]
  outcome: inactive
[40]
  outcome: inactive
[48]
  outcome: inactive

## FC(F)(F)c1ccc(N=C/C=C(/Nc2ccc(C(F)(F)F)cc2)c2ccc(Cl)cc2)cc1
[1]
  TGI: 37.9 µM
[3]
  TGI: 35.5 µM
[4]
  TGI: 26.2 µM
[6]
  TGI: 19.6 µM
[7]
  TGI: > 100 µM
[8]
  TGI: 32.6 µM
[9]
  TGI: 31.8 µM
[10]
  TGI: 44.4 µM
[49]
  TGI: 24.5 µM
[12]
  TGI: 25 µM
[50]
  TGI: 65.5 µM
[13]
  TGI: 40.1 µM
[14]
  TGI: 51.4 µM
[47]
  TGI: 38.2 µM
[15]
  TGI: 24.8 µM
[51]
  TGI: 25.5 µM
[16]
  TGI: > 100 µM
[52]
  TGI: 28.6 µM
[53]
  TGI: 19.3 µM
[17]
  TGI: 30.5 µM
[18]
  TGI: 40.4 µM
[19]
  TGI: 48 µM
[20]
  TGI: 37.7 µM
[54]
  TGI: 23 µM
[21]
  TGI: > 100 µM
[22]
  TGI: 32.3 µM
[23]
  TGI: 31.3 µM
[24]
  TGI: > 100 µM
[25]
  TGI: 31.3 µM
[26]
  TGI: 32.3 µM
[27]
  TGI: 27.9 µM
[28]
  TGI: 49.8 µM
[29]
  TGI: 38.3 µM
[30]
  TGI: 39 µM
[31]
  TGI: 75.8 µM
[32]
  TGI: 84.8 µM
[33]
  TGI: 26.4 µM
[34]
  TGI: 33.2 µM
[35]
  TGI: 36.1 µM
[36]
  TGI: 31.3 µM
[37]
  TGI: 49.6 µM
[55]
  TGI: 33.4 µM
[56]
  TGI: 22.2 µM
[38]
  TGI: 39.1 µM
[39]
  TGI: 26.3 µM
[40]
  TGI: 25 µM
[41]
  TGI: 36.8 µM
[57]
  TGI: > 100 µM
[58]
  TGI: 32.8 µM
[42]
  TGI: 39.9 µM
[43]
  TGI: 69.1 µM
[44]
  TGI: 28.2 µM
[45]
  TGI: 38.3 µM
[48]
  TGI: 15.6 µM
[46]
  TGI: > 100 µM

## CCN1CCN(C(c2ccc(C(F)(F)F)cc2)c2ccc3cccnc3c2O)CC1 (stereo not given)
[1]
  GI50: 2.34 µM
  TGI: 7.5 µM
[2]
  GI50: 2.31 µM
  TGI: 14.1 µM
[3]
  GI50: 1.31 µM
  TGI: 12.1 µM
[4]
  GI50: 3.04 µM
  TGI: 11.2 µM
[5]
  GI50: 1.4 µM
  TGI: 11.6 µM
[6]
  GI50: 2.55 µM
  TGI: 9.36 µM
[7]
  GI50: 1.45 µM
  TGI: 7.85 µM
[8]
  GI50: 3.35 µM
  TGI: 13.1 µM
[9]
  GI50: 5.56 µM
  TGI: 18.7 µM
[11]
  GI50: 0.88 µM
  TGI: 12.2 µM
[49]
  GI50: 3.06 µM
  TGI: 13.5 µM
[12]
  GI50: 3.74 µM
  TGI: 17.6 µM
[50]
  GI50: 2.09 µM
  TGI: 5.6 µM
[13]
  GI50: 1.32 µM
  TGI: 13.7 µM
[14]
  GI50: 3.62 µM
  TGI: 25.3 µM
[15]
  GI50: 5.31 µM
  TGI: 21 µM
[51]
  GI50: 2.04 µM
  TGI: 12.4 µM
[16]
  GI50: 3.49 µM
  TGI: 14.6 µM
[52]
  GI50: 0.89 µM
  TGI: 16.8 µM
[53]
  GI50: 1.71 µM
  TGI: 10.5 µM
[17]
  GI50: 1.7 µM
  TGI: 5.87 µM
[18]
  GI50: 3.72 µM
  TGI: 15.4 µM
[19]
  GI50: 3.46 µM
  TGI: 14.9 µM
[20]
  GI50: 2.97 µM
  TGI: 25.3 µM
[54]
  GI50: 3.76 µM
  TGI: 17.8 µM
[21]
  GI50: 2.12 µM
  TGI: 6.05 µM
[22]
  GI50: 3.09 µM
  TGI: 13.7 µM
[23]
  GI50: 2.35 µM
  TGI: 14.9 µM
[24]
  GI50: 0.412 µM
  TGI: 10.8 µM
[25]
  GI50: 5.01 µM
  TGI: 18 µM
[26]
  GI50: 1.77 µM
  TGI: 10.9 µM
[27]
  GI50: 3.47 µM
  TGI: 15.4 µM
[28]
  GI50: 2.36 µM
  TGI: 14.3 µM
[29]
  GI50: 2.61 µM
  TGI: 14.6 µM
[30]
  GI50: 1.85 µM
  TGI: 13.5 µM
[31]
  GI50: 0.361 µM
  TGI: 17.6 µM
[32]
  GI50: 0.798 µM
  TGI: 16.7 µM
[33]
  GI50: 3.2 µM
  TGI: 16 µM
[34]
  GI50: 1.36 µM
  TGI: 12.8 µM
[35]
  GI50: 0.313 µM
  TGI: 4.39 µM
[36]
  GI50: 1.68 µM
  TGI: 10.1 µM
[37]
  GI50: 4.53 µM
  TGI: 17.6 µM
[55]
  GI50: 3.68 µM
  TGI: 16.6 µM
[56]
  GI50: 2.35 µM
  TGI: 7.83 µM
[38]
  GI50: 3.84 µM
  TGI: 16.8 µM
[39]
  GI50: 2.27 µM
  TGI: 15.3 µM
[40]
  GI50: 1.51 µM
  TGI: 19.8 µM
[41]
  GI50: 1.84 µM
  TGI: 17 µM
[57]
  GI50: 0.835 µM
  TGI: 11 µM
[58]
  GI50: 4.42 µM
  TGI: 19.9 µM
[42]
  GI50: 4.19 µM
  TGI: 15.2 µM
[43]
  GI50: 10 µM
  TGI: 22 µM
[44]
  GI50: 0.658 µM
  TGI: 11.4 µM
[45]
  GI50: 2.06 µM
  TGI: 6.69 µM
[48]
  GI50: 1.98 µM
  TGI: 10.4 µM
[46]
  GI50: 1.59 µM
  TGI: 9.04 µM
